Experimental data: publication PMC10135964, “One Scaffold, Two Conformations: The Ring-Flip of the Messenger InsP8 Occurs under Cytosolic Conditions” (Biomolecules, 2023)
“Also recorded” adds a separate entry of the source. Read-outs that look alike come from different tables or passages of the source.

What was measured:
[1] = target: T1, yeast VTC2 SPX domain (residues 1–182) (Saccharomyces cerevisiae, UniProt P43585); test: Isothermal titration calorimetry of InsP8 binding to the VTC2 SPX domain; settings: 25 °C, pH 7.4, 150 mM KCl, 40 mM NaCl, mean of three replicates; for Kd: read-out: dissociation constant Kd
T1 construct: The VTC2 SPX domain (residues 1–182) was expressed with a C-terminal His6-tag; His6 (C); made in house
T1 sequence (P43585 1-182): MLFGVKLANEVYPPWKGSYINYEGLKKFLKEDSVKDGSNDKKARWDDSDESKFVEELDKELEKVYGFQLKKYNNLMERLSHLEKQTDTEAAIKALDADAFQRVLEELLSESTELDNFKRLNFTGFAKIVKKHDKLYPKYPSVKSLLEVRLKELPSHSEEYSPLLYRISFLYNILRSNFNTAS
Protocol: The VTC2 SPX domain (residues 1–182) was expressed with a C-terminal His6-tag and purified by Ni-affinity and size-exclusion chromatography, as previously published.
Protein stocks were diluted to 300 µL with final buffer conditions: 25 mM HEPES pH 7.4, 150 mM KCl, 40 mM NaCl, 0.5 mM TCEP (ITC buffer). The exact protein concentration for each replicate was determined separately by Bradford assay. InsP8 was diluted to 500 µM in ITC buffer. For binding experiments in the presence of magnesium ions, both dilution buffers were supplemented with MgCl2 to give a final concentration of 1 mM after dilution.
ITC experiments were carried out at 25 °C in a MicroCal PEAQ-ITC calorimeter (Malvern Panalytical GmbH, Kassel, Germany), with ca. 50 µM protein in the cell and 500 µM ligand in the syringe. InsP8 was titrated into the solution in nineteen 2 µL-steps. Spacing between injections was 150 s.
The corresponding instrument software (MicroCal PEAQ-ITC Analysis) was used for baseline correction, peak integration, data fitting and determination of binding parameters.

[2] = system: VTC complex; parameters: method as in PMID 28186404; settings: in vitro, VTC complex from budding yeast S. cerevisiae; cited from earlier work
[3] = 1H,13C BIRD-HMQC NMR quantification of axial vs. equatorial conformer; type: physicochemical; settings: 50 µM, 130 mM KCl, 10 mM NaCl, 4 °C
Protocol: Samples for HMQC-NMR studies contained 50 µM ^13C6-labeled InsPs (InsP6/5PP-InsP5/InsP8), 2 mM bis-tris-propane, 130 mM KCl, 10 mM NaCl and 0/50/250 µM MgCl2 in D2O.
BIRD-HMQC NMR spectra were recorded at 277 K and 600 MHz (^1H frequency) on a Bruker AV-III NMR spectrometer (Bruker Biospin, Rheinstetten, Germany) using cryogenically cooled 5 mm QCI-triple resonance probe equipped with one-axis self-shielded gradients. The spectrometer was operated using topspin 3.5 pl6 software. Instrument temperature was calibrated against […] according to Findeisen et al.. Acquisition parameters were SW(^13C): 60–90 ppm, NS: 128, TD(^13C): 64.
BIRD-HMQC spectra were recorded at 277 K as described above, with samples containing 200 µM InsPs, 130 mM KCl, 10 mM NaCl, 2mM BTP in D2O. pH was set to pH* 9.5 for InsP6, pH* 8.8 for 5PP-InsP5 and pH* 8.5 for InsP8 (pH = 0.929 × pH* + 0.42 [35]). NOESY-HMQC spectra of the same samples were subsequently recorded using mixing times of 80 ms for InsP6 and 5PP-InsP5 and 200 ms for InsP8. Conformational exchange on the time-scale of the experiment created cross-peaks between corresponding peaks in different conformations, which allowed us to assign each peak of the equatorial conformer to its axial counterpart.

[4] = 31P-NMR titrations of InsP8 (protonation, K+ and Mg2+ complex formation constants, HypNMR); type: physicochemical; settings: for pH of the conformational change: 1 mM InsP8, 22 °C
Protocol: In order to create a system free of coordinating counterions, a batch of InsP8 was synthesized as described above, by enzymatic phosphorylation of 5PP-InsP5 and precipitation with Mg^2+, followed by Mg^2+ chelation on Amberlite® cation exchange resin. Unlike in the standard procedure, the resin was loaded with NMe4Cl instead of NH4CO3, resulting in a batch of InsP8 with non-coordinating NMe4^+ counterions. 1 mM EDTA was added to all ^31P-NMR titrations to chelate remaining traces of Mg^2+.
NMR-samples contained 1 mM InsP8, 1 mM EDTA, pH 3.0–12.5 (in H2O, steps of 0.5 pH units) and a) for the non-coordinating condition: 150 mM NMe4Cl or b) 150 mM KCl or c) 150 mM KCl and 1 mM MgCl2. Sealed glass capillaries containing 50 mM phosphonoacetic acid in D2O were added into the sample tubes for locking and chemical shift calibration.
^31P-NMR spectra were recorded at 295 K on a Bruker spectrometer (see above) operating at 600 MHz for protons and 244 MHz for phosphorous nuclei. SW: −40 ppm to −20 ppm, NS: 1024. Spectra at pH 3.0 were assigned by various 2D-NMR methods (Figure S5) and chemical shift changes were tracked across the pH range.
The data were analyzed using the HypNMR 2006 software (Hyperquad Limited, Lincoln, UK). Different possible stoichiometries were tested, and the final chemical models were selected on the basis of the σ parameter (scaled sum of square differences between predicted and experimental chemical shift values), the model confidence level estimator (chi square), and the internal consistency of data reflected in standard deviations of the formation constants. Species distribution diagrams were produced using the HySS program (Hyperquad Limited, Lincoln, UK).

[5] = 1H,13C BIRD-HMQC NMR quantification of axial vs. equatorial conformer; type: physicochemical; settings: pH* 7.5, 5 equiv. Ca2+, 130 mM KCl, 10 mM NaCl

O=P(O)(O)O[C@@H]1[C@@H](OP(=O)(O)O)[C@H](OP(=O)(O)OP(=O)(O)O)[C@@H](OP(=O)(O)O)[C@H](OP(=O)(O)OP(=O)(O)O)[C@@H]1OP(=O)(O)O [InsP8, 1,5(PP)2-InsP4]
ΔH of binding ([1]; 1 mM MgCl2): -5.9 kcal/mol
−TΔS of binding ([1]; 1 mM MgCl2): -3.3 kcal/mol
Kd ([1]; 1 mM MgCl2): 205 nM
ΔH of binding ([1]; without divalent ions): -3.5 kcal/mol
−TΔS of binding ([1]; without divalent ions): -5.2 kcal/mol
Kd ([1]; without divalent ions): 373 nM
effectiveness at activating polyphosphate synthesis by the VTC complex [2]: twenty-times more effective than 5PP-InsP5
proportion in axial conformation ([3]; pH* 7.5 (=pH 7.4), 1 equiv. Mg2+): about 10%
proportion in axial conformation ([3]; pH* 7.5, 5 equiv. Mg2+): about half; also recorded: almost equally distributed between its axial and equatorial forms
proportion in axial conformation ([3]; pH* 8.5, without divalent cations): about half
pH of the conformational change ([4]; 150 mM K+): 8.5–9.0
pH of the transition to the equatorial conformation ([4]; 150 mM KCl and 1 mM MgCl2, 1 mM InsP8, 22 °C): ~8.5
log K, 2 K^+ + H5L^9− ↔ [K2(H5L)]^7− ([4]; 31P NMR, 22 °C, I = 0.15 M): 3.820(7)
log K, 3 K^+ + H4L^10− ↔ [K3(H4L)]^7− ([4]; 31P NMR, 22 °C, I = 0.15 M): 5.446(5)
log K, 4 K^+ + H2L^12− ↔ [K4(H2L)]^8− ([4]; 31P NMR, 22 °C, I = 0.15 M): 9.76(3)
log K, 5 K^+ + HL^13− ↔ [K5(HL)]^8− ([4]; 31P NMR, 22 °C, I = 0.15 M): 12.47(3)
log K, K^+ + H6L^8− ↔ [K(H6L)]^7− ([4]; 31P NMR, 22 °C, I = 0.15 M): 2.58(5)
log K, K^+ + H7L^7− ↔ [K(H7L)]^6− ([4]; 31P NMR, 22 °C, I = 0.15 M): 2.08(3)
log K, L^14− + 2 H^+ ↔ H2L^12− ([4]; 31P NMR, 22 °C, I = 0.15 M): 22.78(2)
log K, L^14− + 3 H^+ ↔ H3L^11− ([4]; 31P NMR, 22 °C, I = 0.15 M): 34.22(2)
log K, L^14− + 4 H^+ ↔ H4L^10− ([4]; 31P NMR, 22 °C, I = 0.15 M): 43.96(2)
log K, L^14− + 5 H^+ ↔ H5L^9− ([4]; 31P NMR, 22 °C, I = 0.15 M): 52.58(3)
log K, L^14− + 6 H^+ ↔ H6L^8− ([4]; 31P NMR, 22 °C, I = 0.15 M): 59.41(8)
log K, L^14− + 7 H^+ ↔ H7L^7− ([4]; 31P NMR, 22 °C, I = 0.15 M): 64.91(6)
log K, L^14− + 8 H^+ ↔ H8L^6− ([4]; 31P NMR, 22 °C, I = 0.15 M): 68.79(7)
log K, L^14− + H^+ ↔ HL^13− ([4]; 31P NMR, 22 °C, I = 0.15 M): 11.21(1)
log K, Mg^2+ + H2L^12− + 3 K^+ ↔ [MgK3(H2L)]^7− ([4]; 31P NMR, 22 °C, I = 0.15 M): 18.1(1)
log K, Mg^2+ + H4L^10− + 2 K^+ ↔ [MgK2(H4L)]^6− ([4]; 31P NMR, 22 °C, I = 0.15 M): 11.6(1)
log K, Mg^2+ + H5L^9− + K^+ ↔ [MgK(H5L)]^6− ([4]; 31P NMR, 22 °C, I = 0.15 M): 9.1(1)
log K, Mg^2+ + H6L^8− + K^+ ↔ [MgK(H6L)]^5− ([4]; 31P NMR, 22 °C, I = 0.15 M): 7.3(1)
log K, Mg^2+ + HL^13− + 4 K^+ ↔ [MgK4(HL)]^7− ([4]; 31P NMR, 22 °C, I = 0.15 M): 21.6(1)
log K, Mg^2+ + L^14− + 4 K^+ ↔ [MgK4L]^8− ([4]; 31P NMR, 22 °C, I = 0.15 M): 22.4(1)
negative charges carried ([4]; pH 7.4): 10–11
most abundant species ([4]; physiological pH range, 150 mM KCl and 1 mM MgCl2, 22 °C): [MgK3(H3L)]^6−
pH of the conformational change ([4]; without coordinating cations (150 mM NMe4Cl)): ~11
proportion in axial conformation [5]: About 15%
